Experimental data published in patent US20230391768A2, “IMIDAZOPYRIDINE DERIVATIVES AND AZA-IMIDAZOPYRIDINE DERIVATIVES AS JANUS KINASE 2 INHIBITORS AND USES THEREOF” (Dana-Farber Cancer Institute, Inc., priority 2018, published 2023).

Key:
Assay in all cases: KINOMEscan
Type in all cases: binding
Conditions in all cases: read-out: percent of control
MEK4 = MEK4 (Homo sapiens (Human), UniProt P45985)
Description: (§1) In vitro profiling of Compound I-2 (1 μM) was performed using the DiscoveRx KINOMEscan® platform.

MLK3 = MLK3 (Homo sapiens (Human), UniProt Q16584)
Description: as §1

MEK6 = MEK6 (Homo sapiens (Human), UniProt P52564)
Description: as §1

NEK11 = NEK11 (Homo sapiens (Human), UniProt Q8NG66)
Description: as §1

[1] = target: JAK2(JH1domain-catalytic (Homo sapiens (Human), UniProt O60674))
Description: as §1

DDR2 = DDR2 (Homo sapiens (Human), UniProt Q16832)
Chain of DDR2 (Q16832 22-855): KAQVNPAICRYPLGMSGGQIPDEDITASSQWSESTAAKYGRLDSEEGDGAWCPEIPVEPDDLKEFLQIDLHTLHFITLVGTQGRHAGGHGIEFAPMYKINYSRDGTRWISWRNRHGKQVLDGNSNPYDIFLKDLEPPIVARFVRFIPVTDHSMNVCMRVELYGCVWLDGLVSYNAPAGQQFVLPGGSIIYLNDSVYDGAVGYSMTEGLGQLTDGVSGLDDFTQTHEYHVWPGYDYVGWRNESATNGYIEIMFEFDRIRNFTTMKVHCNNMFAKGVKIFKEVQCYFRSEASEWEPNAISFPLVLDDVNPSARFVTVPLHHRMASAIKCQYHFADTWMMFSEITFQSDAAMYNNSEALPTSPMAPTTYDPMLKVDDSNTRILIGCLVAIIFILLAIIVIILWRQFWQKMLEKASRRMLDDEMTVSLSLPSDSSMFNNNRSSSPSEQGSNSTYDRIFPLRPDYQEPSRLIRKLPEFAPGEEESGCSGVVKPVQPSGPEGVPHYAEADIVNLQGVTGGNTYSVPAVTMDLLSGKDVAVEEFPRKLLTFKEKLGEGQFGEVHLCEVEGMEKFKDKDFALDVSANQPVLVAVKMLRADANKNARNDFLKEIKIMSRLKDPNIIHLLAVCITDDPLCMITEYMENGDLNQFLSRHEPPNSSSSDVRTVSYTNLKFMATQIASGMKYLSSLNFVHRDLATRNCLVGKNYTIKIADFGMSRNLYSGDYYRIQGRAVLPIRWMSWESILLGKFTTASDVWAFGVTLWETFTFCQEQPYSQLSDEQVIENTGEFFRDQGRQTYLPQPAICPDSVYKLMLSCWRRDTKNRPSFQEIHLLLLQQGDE
Description: as §1

LKB1 = LKB1 (Homo sapiens (Human), UniProt Q15831)
Chain of LKB1 (Q15831 whole entry): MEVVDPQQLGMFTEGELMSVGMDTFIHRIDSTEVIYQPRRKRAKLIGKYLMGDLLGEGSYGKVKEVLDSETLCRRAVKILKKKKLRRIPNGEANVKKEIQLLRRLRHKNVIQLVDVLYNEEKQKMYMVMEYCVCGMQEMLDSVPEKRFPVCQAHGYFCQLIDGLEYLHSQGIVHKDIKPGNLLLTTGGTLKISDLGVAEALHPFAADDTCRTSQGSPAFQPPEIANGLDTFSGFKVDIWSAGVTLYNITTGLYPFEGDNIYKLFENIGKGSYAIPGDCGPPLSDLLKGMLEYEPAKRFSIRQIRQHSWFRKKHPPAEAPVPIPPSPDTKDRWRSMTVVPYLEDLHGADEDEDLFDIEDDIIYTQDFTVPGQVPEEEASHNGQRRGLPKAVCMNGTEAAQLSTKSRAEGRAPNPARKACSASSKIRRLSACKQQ
Description: as §1

CSF1R = CSF1R (Homo sapiens (Human), UniProt P07333)
Description: as §1

NEK2 = NEK2 (Homo sapiens (Human), UniProt P51955)
Chain of NEK2 (P51955 whole entry): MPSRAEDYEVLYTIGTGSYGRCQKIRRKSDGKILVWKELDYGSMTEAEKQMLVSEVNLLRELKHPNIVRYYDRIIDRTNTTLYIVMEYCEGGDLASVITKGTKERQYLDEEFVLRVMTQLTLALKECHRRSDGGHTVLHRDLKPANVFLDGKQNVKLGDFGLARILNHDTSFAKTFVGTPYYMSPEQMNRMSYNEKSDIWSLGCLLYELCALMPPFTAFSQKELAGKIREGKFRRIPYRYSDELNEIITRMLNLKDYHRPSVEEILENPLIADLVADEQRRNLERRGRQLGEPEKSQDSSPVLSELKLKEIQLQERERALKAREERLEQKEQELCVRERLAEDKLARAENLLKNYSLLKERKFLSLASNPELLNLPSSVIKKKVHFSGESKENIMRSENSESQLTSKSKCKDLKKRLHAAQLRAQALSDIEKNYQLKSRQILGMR
Description: as §1

CLK3 = CLK3 (Homo sapiens (Human), UniProt P49761)
Description: as §1

MRCKB = MRCKB (Homo sapiens (Human), UniProt Q9Y5S2)
Description: as §1

LZK = LZK (Homo sapiens (Human), UniProt O43283)
Description: as §1

SRPK3 = SRPK3 (Homo sapiens (Human), UniProt Q9UPE1)
Chain of SRPK3 (Q9UPE1 whole entry): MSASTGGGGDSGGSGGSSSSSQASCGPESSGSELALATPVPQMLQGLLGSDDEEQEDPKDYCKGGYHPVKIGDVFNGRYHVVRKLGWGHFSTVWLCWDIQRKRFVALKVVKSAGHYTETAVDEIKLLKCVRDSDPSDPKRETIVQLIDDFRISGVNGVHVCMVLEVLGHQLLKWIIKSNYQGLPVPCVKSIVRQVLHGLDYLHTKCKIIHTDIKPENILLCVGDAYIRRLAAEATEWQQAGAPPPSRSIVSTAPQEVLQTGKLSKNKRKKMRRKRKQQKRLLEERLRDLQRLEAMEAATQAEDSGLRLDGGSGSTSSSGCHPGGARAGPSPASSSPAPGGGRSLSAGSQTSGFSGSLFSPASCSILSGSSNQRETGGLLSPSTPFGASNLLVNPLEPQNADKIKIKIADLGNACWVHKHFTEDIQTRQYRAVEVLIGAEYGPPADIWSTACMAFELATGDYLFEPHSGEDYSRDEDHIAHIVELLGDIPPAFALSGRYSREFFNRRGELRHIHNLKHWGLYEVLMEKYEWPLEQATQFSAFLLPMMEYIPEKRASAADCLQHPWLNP
Description: as §1

MEK3 = MEK3 (Homo sapiens (Human), UniProt P46734)
Description: as §1

PIK3CA(E545K) = PIK3CA(E545K) (Homo sapiens (Human), UniProt P42336, E545K)
Description: as §1

PHKG2 = PHKG2 (Homo sapiens (Human), UniProt P15735)
Description: as §1

[2] = target: ABL1(M351T)-phosphorylated (Homo sapiens (Human), UniProt P00519, M351T)
Description: as §1

SYK = SYK (Homo sapiens (Human), UniProt P43405)
Description: as §1

EPHA6 = EPHA6 (Homo sapiens (Human), UniProt Q9UF33)
Description: as §1

AURKA = AURKA (Homo sapiens (Human), UniProt O14965)
Description: as §1

PLK1 = PLK1 (Homo sapiens (Human), UniProt P53350)
Description: as §1

MYO3A = MYO3A (Homo sapiens (Human), UniProt Q8NEV4)
Chain of MYO3A (Q8NEV4 whole entry): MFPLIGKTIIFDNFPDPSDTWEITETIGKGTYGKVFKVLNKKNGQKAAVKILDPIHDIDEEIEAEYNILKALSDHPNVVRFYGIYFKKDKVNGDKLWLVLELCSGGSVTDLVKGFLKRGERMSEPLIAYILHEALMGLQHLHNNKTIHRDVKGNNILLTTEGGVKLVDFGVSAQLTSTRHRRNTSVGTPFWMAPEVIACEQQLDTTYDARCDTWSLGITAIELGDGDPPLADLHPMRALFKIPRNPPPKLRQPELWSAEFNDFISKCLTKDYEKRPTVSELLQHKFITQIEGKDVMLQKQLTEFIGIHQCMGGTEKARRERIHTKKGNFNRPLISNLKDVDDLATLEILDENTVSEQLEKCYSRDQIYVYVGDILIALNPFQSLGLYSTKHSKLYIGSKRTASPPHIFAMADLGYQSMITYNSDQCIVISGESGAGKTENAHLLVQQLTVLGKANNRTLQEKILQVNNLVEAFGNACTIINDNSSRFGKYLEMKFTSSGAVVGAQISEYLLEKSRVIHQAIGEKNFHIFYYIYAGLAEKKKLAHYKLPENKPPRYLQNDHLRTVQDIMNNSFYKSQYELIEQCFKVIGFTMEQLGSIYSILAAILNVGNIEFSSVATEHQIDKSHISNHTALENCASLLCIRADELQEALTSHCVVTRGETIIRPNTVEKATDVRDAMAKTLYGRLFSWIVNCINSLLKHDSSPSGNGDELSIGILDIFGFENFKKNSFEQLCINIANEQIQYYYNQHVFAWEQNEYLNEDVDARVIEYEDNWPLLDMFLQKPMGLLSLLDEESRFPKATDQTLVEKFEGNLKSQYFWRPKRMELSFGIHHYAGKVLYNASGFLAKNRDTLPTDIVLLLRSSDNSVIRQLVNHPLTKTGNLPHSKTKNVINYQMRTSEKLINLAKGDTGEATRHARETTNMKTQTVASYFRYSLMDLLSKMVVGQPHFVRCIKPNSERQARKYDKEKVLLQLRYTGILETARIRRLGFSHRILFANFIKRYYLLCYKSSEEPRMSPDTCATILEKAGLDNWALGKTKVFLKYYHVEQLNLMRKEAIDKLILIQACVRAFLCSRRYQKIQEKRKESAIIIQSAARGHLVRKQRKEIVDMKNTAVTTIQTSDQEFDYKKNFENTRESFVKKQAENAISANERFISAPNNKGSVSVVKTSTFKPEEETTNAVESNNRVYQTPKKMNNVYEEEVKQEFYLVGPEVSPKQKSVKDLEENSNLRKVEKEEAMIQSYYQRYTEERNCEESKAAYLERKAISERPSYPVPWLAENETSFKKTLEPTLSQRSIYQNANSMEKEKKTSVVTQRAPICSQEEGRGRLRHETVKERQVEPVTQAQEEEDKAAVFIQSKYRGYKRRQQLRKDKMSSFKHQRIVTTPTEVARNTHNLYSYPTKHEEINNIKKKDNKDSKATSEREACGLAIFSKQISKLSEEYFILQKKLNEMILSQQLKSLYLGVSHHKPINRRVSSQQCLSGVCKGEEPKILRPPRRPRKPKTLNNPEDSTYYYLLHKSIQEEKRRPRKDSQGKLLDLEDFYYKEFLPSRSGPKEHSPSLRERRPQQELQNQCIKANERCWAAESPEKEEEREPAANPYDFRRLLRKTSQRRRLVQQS
Description: as §1

EPHB6 = EPHB6 (Homo sapiens (Human), UniProt O15197)
Description: as §1

MAP4K5 = MAP4K5 (Homo sapiens (Human), UniProt Q9Y4K4)
Description: as §1

JNK1 = JNK1 (Homo sapiens (Human), UniProt P45983)
Description: as §1

PFTAIRE2 = PFTAIRE2 (Homo sapiens (Human), UniProt Q96Q40)
Chain of PFTAIRE2 (Q96Q40 whole entry): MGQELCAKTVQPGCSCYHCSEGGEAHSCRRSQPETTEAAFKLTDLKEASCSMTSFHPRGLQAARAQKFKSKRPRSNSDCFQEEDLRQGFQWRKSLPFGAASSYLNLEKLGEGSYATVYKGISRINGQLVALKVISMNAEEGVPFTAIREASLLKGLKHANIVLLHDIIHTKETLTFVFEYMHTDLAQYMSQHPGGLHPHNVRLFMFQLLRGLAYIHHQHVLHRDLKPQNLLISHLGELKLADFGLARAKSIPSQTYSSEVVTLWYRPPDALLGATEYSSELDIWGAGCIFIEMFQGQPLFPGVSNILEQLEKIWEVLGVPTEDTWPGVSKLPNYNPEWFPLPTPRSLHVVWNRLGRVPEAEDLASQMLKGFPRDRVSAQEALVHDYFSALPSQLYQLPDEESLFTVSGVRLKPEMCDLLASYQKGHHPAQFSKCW
Description: as §1

PIP5K2C = PIP5K2C (Homo sapiens (Human), UniProt Q8TBX8)
Description: as §1

EPHA8 = EPHA8 (Homo sapiens (Human), UniProt P29322)
Description: as §1

MAST1 = MAST1 (Homo sapiens (Human), UniProt Q9Y2H9)
Description: as §1

MELK = MELK (Homo sapiens (Human), UniProt Q14680)
Description: as §1

PDGFRB = PDGFRB (Homo sapiens (Human), UniProt P09619)
Description: as §1

PIK3CA(1800L) = PIK3CA(1800L) (Homo sapiens (Human), UniProt P42336, I800L)
Description: as §1

SGK2 = SGK2 (Homo sapiens (Human), UniProt Q9HBY8)
Description: as §1

JNK2 = JNK2 (Homo sapiens (Human), UniProt P45984)
Description: as §1

DCAMKL2 = DCAMKL2 (Homo sapiens (Human), UniProt Q8N568)
Description: as §1

RIPK1 = RIPK1 (Homo sapiens (Human), UniProt Q13546)
Description: as §1

STK35 = STK35 (Homo sapiens (Human), UniProt Q8TDR2)
Description: as §1

AURKC = AURKC (Homo sapiens (Human), UniProt Q9UQB9)
Description: as §1

TSSK3 = TSSK3 (Homo sapiens (Human), UniProt Q96PN8)
Chain of TSSK3 (Q96PN8 whole entry): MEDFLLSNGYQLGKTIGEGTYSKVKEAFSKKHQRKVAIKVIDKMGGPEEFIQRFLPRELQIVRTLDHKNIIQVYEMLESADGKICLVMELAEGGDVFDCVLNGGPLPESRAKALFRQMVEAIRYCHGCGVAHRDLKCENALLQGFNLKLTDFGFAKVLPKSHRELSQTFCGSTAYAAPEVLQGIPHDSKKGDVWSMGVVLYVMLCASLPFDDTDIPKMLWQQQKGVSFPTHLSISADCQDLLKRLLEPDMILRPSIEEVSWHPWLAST
Description: as §1

Chain of MEK4 (P45985 whole entry): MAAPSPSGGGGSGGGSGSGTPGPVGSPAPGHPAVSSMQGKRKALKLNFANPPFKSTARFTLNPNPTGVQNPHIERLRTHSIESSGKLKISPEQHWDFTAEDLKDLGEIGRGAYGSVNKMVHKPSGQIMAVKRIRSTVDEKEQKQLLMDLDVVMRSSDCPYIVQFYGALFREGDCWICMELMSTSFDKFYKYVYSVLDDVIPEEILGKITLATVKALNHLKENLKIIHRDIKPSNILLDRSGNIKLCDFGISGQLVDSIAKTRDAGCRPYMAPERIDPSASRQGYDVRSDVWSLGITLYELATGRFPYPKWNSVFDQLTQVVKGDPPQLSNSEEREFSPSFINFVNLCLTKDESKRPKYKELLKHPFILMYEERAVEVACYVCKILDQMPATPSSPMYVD

| Structure (SMILES) | remaining binding at 1 µM (MEK4) | remaining binding at 1 µM (MLK3) | remaining binding at 1 µM (MEK6) | remaining binding at 1 µM (NEK11) | remaining binding at 1 µM [1] | remaining binding at 1 µM (DDR2) | remaining binding at 1 µM (LKB1) | remaining binding at 1 µM (CSF1R) | remaining binding at 1 µM (NEK2) | remaining binding at 1 µM (CLK3) | remaining binding at 1 µM (MRCKB) | remaining binding at 1 µM (LZK) | remaining binding at 1 µM (SRPK3) | remaining binding at 1 µM (MEK3) | remaining binding at 1 µM (PIK3CA(E545K)) | remaining binding at 1 µM (PHKG2) | remaining binding at 1 µM [2] | remaining binding at 1 µM (SYK) | remaining binding at 1 µM (EPHA6) | remaining binding at 1 µM (AURKA) | further results |
| --- | --- | --- | --- | --- | --- | --- | --- | --- | --- | --- | --- | --- | --- | --- | --- | --- | --- | --- | --- | --- | --- |
| CCN1CCN(Cc2cc(NC(=O)c3ccc(C)c(-c4ccc5nc(NC(=O)C6CC6)cn5n4)c3)cc(C(F)(F)F)c2)CC1 [Compound I-2, 3-(2-(cyclopropanecarboxamido)imidazo[1,2-b]pyridazin-6-yl)-N-(3-((4-ethylpiperazin-1-yl)methyl)-5-(trifluoromethyl)phenyl)-4-methylbenzamide] | 98% | 76% | 94% | 65% | 7.9% | 0.1% | 73% | 0.05% | 84% | 79% | 100% | 48% | 92% | 71% | 99% | 93% | 0.8% | 1.9% | 5.2% | 64% | remaining binding at 1 µM (PLK1): 98%; remaining binding at 1 µM (MYO3A): 85%; remaining binding at 1 µM (EPHB6): 78%; remaining binding at 1 µM (MAP4K5): 0.7%; remaining binding at 1 µM (JNK1): 96%; remaining binding at 1 µM (PFTAIRE2): 0.9%; remaining binding at 1 µM (PIP5K2C): 5.7%; remaining binding at 1 µM (EPHA8): 0%; remaining binding at 1 µM (MAST1): 94%; remaining binding at 1 µM (MELK): 95%; remaining binding at 1 µM (PDGFRB): 0%; remaining binding at 1 µM (PIK3CA(1800L)): 100%; remaining binding at 1 µM (SGK2): 87%; remaining binding at 1 µM (JNK2): 46%; remaining binding at 1 µM (DCAMKL2): 98%; remaining binding at 1 µM (RIPK1): 0.45%; remaining binding at 1 µM (STK35): 69%; remaining binding at 1 µM (AURKC): 84%; remaining binding at 1 µM (TSSK3): 100% |
| CCN1CCN(Cc2cc(NC(=O)c3ccc(C)c(-c4ccc5nc(NC(=O)C6CC6)cn5c4)c3)cc(C(F)(F)F)c2)CC1 [Compound I-6, 3-(2-(cyclopropanecarboxamido)imidazo[1,2-a]pyridin-6-yl)-N-(3-((4-ethylpiperazin-1-yl)methyl)-5-(trifluoromethyl)phenyl)-4-methylbenzamide] | 71% | 82% | 95% | 89% | 6.5% | 0% | 100% | 0% | 100% | 84% | 100% | 100% | 83% | 87% | 93% | 98% | 0.5% | 0.65% | 0.75% | 94% | remaining binding at 1 µM (PLK1): 100%; remaining binding at 1 µM (MYO3A): 66%; remaining binding at 1 µM (EPHB6): 64%; remaining binding at 1 µM (MAP4K5): 3.2%; remaining binding at 1 µM (JNK1): 96%; remaining binding at 1 µM (PFTAIRE2): 3.6%; remaining binding at 1 µM (PIP5K2C): 46%; remaining binding at 1 µM (EPHA8): 0%; remaining binding at 1 µM (MAST1): 95%; remaining binding at 1 µM (MELK): 100%; remaining binding at 1 µM (PDGFRB): 0%; remaining binding at 1 µM (PIK3CA(1800L)): 91%; remaining binding at 1 µM (SGK2): 76%; remaining binding at 1 µM (JNK2): 27%; remaining binding at 1 µM (DCAMKL2): 100%; remaining binding at 1 µM (RIPK1): 0.75%; remaining binding at 1 µM (STK35): 59%; remaining binding at 1 µM (AURKC): 91%; remaining binding at 1 µM (TSSK3): 91% |
